Consider 28 molecules from patent publication US6610689B2, “HIV protease inhibitors based on amino acid derivatives” (priority 2001, dated 2003).

pKi: −log10 of the molar value. Counter-ions that a name gives are not always drawn.

One assay concerns the target T1, HIV protease (Human immunodeficiency virus type 1 group M subtype B, UniProt P04585).
T1 construct: A third viral enzyme known as protease then cleaves the polyproteins
The experiment in a line: Enzymatic Assay for Determining the Inhibition Constant (Ki) of Synthetic Compounds Targeting the HIV Protease (fluorometric FRET assay). In kind it is biochemical.
Details: not given
An excerpt: Enzymatic Assay for Determining the Inhibition Constant (Ki) of Synthetic Compounds Targeting the HIV Protease
This is a fluorometric assay based on the cleavage by protease of a substrate carrying a donor group (EDANS) and an acceptor group (DABCYL) on each side of the cleavage site, interacting together through fluorescence resonance energy transfer (FRET) as described by Matayoshi et al. (Science 247:[…], 1990).
After calculation of Vo and Vi, the inhibition constant (Ki) of the compound is determined using the equation of Henderson: [formula]
where Vo=the enzyme's initial velocity
Vi=the enzyme velocity in the presence of the inhibitory compound,
[I]=inhlibitor concentration, [S]=substrate concentration,
Km=Michaelis-Menten constant and Kiapp=apparent Ki
Graphs are traced and the Ki determined using GraphPad Prism software v. 3.0.
For the molecule `Cc1ccc(S(=O)(=O)N[C@@H](CC(=O)O)C(=O)NCCCC[C@@H](C(=O)O)N(CC(C)C)S(=O)(=O)c2ccc(C)cc2)cc1` [Example 41, Nα-Isobutyl-Nα-(4-methylbenzenesulfonyl)-Nε-[N′α-(4-methylbenzenesulfonyl)-L-aspartyl]-L-lysine], the pKi (as a rule, −log10 of the Ki, conventionally taken in molar units) was 6.76. As for `Cc1ccc(S(=O)(=O)N(CC(C)C)[C@@H](CCCCNC(=O)[C@H](Cc2ccccc2)NS(=O)(=O)c2ccc(C(F)(F)F)cc2)C(=O)O)cc1` [Example 23, Nα-Isobutyl-Nα-(4-methylbenzenesulfonyl)-Nε-[N′α-(4-trifluoromethylbenzenesulfonyl)-L-phenylalanyl]-L-lysine], the pKi is 7.92. For the molecule `CC(C)CN([C@H](CO)CCCCNC(=O)[C@H](Cc1c[nH]c2ccccc12)NS(=O)(=O)c1ccc(N)cc1)S(=O)(=O)c1ccc(N)cc1` [Example 187, (2S,2′S) 2-N-(4-Aminobenzenesulfonyl)-2-N-isobutyl-6-N-[N′α-(4-aminobenzenesulfonyl)-S-tryptophanyl]-2,6-diaminohexanol], the pKi is 9.70. The same measure, in the same setting: to `Cc1ccc(S(=O)(=O)N[C@@H](CCC(=O)O)C(=O)NCCCC[C@@H](C(=O)O)N(CC(C)C)S(=O)(=O)c2ccc(C)cc2)cc1` [Example 38, Nα-Isobutyl-Nα-(4-methylbenzenesulfonyl)-Nε-[N′α-(4-methylbenzenesulfonyl)-L-glutamyl]-L-lysine] belongs 6.66; to `Cc1ccc(S(=O)(=O)N(CC(C)C)[C@@H](CCCCNC(=O)[C@H](Cc2ccccc2)NC(=O)N2CCCC2)C(=O)O)cc1` [Example 197, Nα-Isobutyl-Nα-(4-methylbenzenesulfonyl)-Nε-(N′α-pyrrolidinecarbonyl-L-phenylalanyl)-L-lysine], 8.77; to `CSCC[C@H](NC(=O)OC(C)(C)C)C(=O)NCCCC[C@@H](C(=O)O)N(CC(C)C)S(=O)(=O)c1ccc(C)cc1` [Example 82, Nα-Isobutyl-Nα-(4-methylbenzenesulfonyl)-Nε-(N′α-tert-butoxycarbonyl-L-methionyl)-L-lysine], 7.19.

For `Cc1ccc(S(=O)(=O)N(CC(C)C)[C@@H](CCCCNC(=O)[C@@H](N)Cc2ccccc2)C(=O)O)cc1` [Example 79, Nα-Isobutyl-Nα-(4-methylbenzenesulfonyl)-Nε-(L-phenylalanyl)-L-lysine], the negative-log Ki (pKi) is 8.82. With `COC(=O)[C@H](CCCCNC(=O)[C@H](Cc1c[nH]c2ccccc12)NS(=O)(=O)c1ccc(C)cc1)N(CC(C)C)S(=O)(=O)c1ccc(C)cc1` [Example 69, Nα-Isobutyl-Nα-(4-methylbenzenesulfonyl)-Nε-[N′α-(4-methylbenzenesulfonyl)-L-tryptophanyl]-L-lysine Methyl Ester], the pKi is < 6.52. For `Cc1ccc(S(=O)(=O)N(CC(C)C)[C@@H](CCCCNC(=O)[C@H](Cc2ccccc2)N(C)C(=O)OC(C)(C)C)C(=O)O)cc1` [Example 81, Nα-Isobutyl-Nα-(4-methylbenzenesulfonyl)-Nε-(N′α-tert-butoxycarbonyl-N′α-methyl-L-phenylalanyl)-L-lysine], the pKi is 8.42. `COc1ccc(S(=O)(=O)N(CC2CCCC2)[C@H](CO)CCCCNC(=O)[C@H](Cc2c[nH]c3ccccc23)NC(C)=O)cc1` [Example 173, (2S,2′S) 2-N-Cyclopentylmethyl-2-N-(4-methoxybenzenesulfonyl)-6-N-(N′α-acetyl-S-tryptophanyl)-2,6-diaminohexanol] gave a pKi of 7.96. Molecule `Cc1ccc(S(=O)(=O)N[C@@H](COCc2ccccc2)C(=O)NCCCC[C@@H](C(=O)O)N(CC(C)C)S(=O)(=O)c2ccc(C)cc2)cc1` [Example 40, Nα-Isobutyl-Nα-(4-methylbenzenesulfonyl)-Nε-[N′α-(4-methylbenzenesulfonyl)-O-benzyl-L-seryl]-L-lysine] gave a negative-log Ki (pKi) of 8.10. In turn, `Cc1ccc(S(=O)(=O)NC(Cc2c[nH]c3ccccc23)C(=NC#N)NCCCCC(C(=O)O)N(CC(C)C)S(=O)(=O)c2ccc(C)cc2)cc1` [Example 103, Nα-Isobutyl-Nα-(4-methylbenzenesulfonyl)-Nε-[N′α-(4-methylbenzenesulfonyl)-L-tryptophanyl-N-cyanoamidine]-L-lysine] gave a pKi of 8.96. Turning to `Cc1ccc(S(=O)(=O)N(CC(C)C)[C@H](CO)CCCCNC(=O)CN(Cc2ccccc2)C(=O)c2ccccc2)cc1` [Example 158, (2S) 2-N-Isobutyl-2-N-(4-methylbenzenesulfonyl)-6-N-(N′α-benzoyl-N′α-benzylglycyl)-2,6-diaminohexanol], the negative logarithm of the Ki (pKi) is 7.02.

In turn, `Cc1ccc(S(=O)(=O)N[C@H](C(=O)NCCCC[C@@H](C(=O)O)N(CC(C)C)S(=O)(=O)c2ccc(C)cc2)c2ccccc2)cc1` [Example 27, Nα-Isobutyl-Nα-(4-methylbenzenesulfonyl)-Nε-[N′α-(4-methylbenzenesulfonyl)-L-phenylglycyl]-L-lysine] gave a negative-log Ki (pKi) of 7.96.

As to `CC(C)CN([C@H](CO)CCCCNC(=O)CN(Cc1ccccc1)c1ccccc1)S(=O)(=O)c1ccc(N)cc1` [Example 182, (2S) 2-N-(4-Aminobenzenesulfonyl)-2-N-isobutyl-6-N-(N′α-benzyl-N′α-phenylglycyl)-2,6-diaminohexanol], the pKi was 8.62. `Cc1ccc(S(=O)(=O)N(CC(C)C)[C@@H](CCCCNC(=O)[C@H](Cc2c[nH]c3ccccc23)NS(=O)(=O)c2ccc([N+](=O)[O-])cc2)C(=O)O)cc1` [Example 6, Nα-Isobutyl-Nα-(4-methylbenzenesulfonyl)-Nε-[N′α-(4-nitrobenzenesulfonyl)-L-tryptophanyl]-L-lysine]: the pKi is 8.14. Same read-out and setting: to `Cc1ccc(S(=O)(=O)N[C@@H](Cc2c[nH]c3ccccc23)C(=O)NCCCC[C@@H](C(=O)O)N(CC(C)C)S(=O)(=O)c2ccc(C)cc2)cc1` [Example 2, Nα-Isobutyl-Nα-(4-methylbenzenesulfonyl)-Nε-[N′α-(4-methylbenzenesulfonyl)-L-tryptophanyl]-L-lysine] belongs 9.29; to `Cc1ccc(S(=O)(=O)N(CC(C)C)[C@H](CO)CCCCNC(=O)[C@H](Cc2ccc(C(C)(C)C)cc2)NC(=O)OC(C)(C)C)cc1` [Example 142, (2S,2′S) 2-N-Isobutyl-2-N-(4-methylbenzenesulfonyl)-6-N-(N′α-tert-butoxycarbonyl-S-4-tert-butylphenylalanyl)-2,6-diaminohexanol], 7.03. Same read-out and setting: to `COC(=O)[C@H](CCCCNC(=O)[C@H](Cc1ccccc1)NC(=O)c1ccccc1)N(CC(C)C)S(=O)(=O)c1ccc(C)cc1` [Example 70, Nα-Isobutyl-Nα-(4-methylbenzenesulfonyl)-Nε-(N′α-benzoyl-L-phenylalanyl)-L-lysine Methyl Ester] belongs < 6.52; to `COC(=O)N[C@@H](Cc1c[nH]c2ccccc12)C(=O)NCCCC[C@@H](CO)N(CC(C)C)S(=O)(=O)c1ccc(N)cc1` [Example 178, (2S,2′S) 2-N-(4-Aminobenzenesulfonyl)-2-N-isobutyl-6-N-(N′α-methoxycarbonyl-S-tryptophanyl)-2,6-diaminohexanol], 8.70.

Take `CC(C)CN([C@H](CO)CCCCNC(=O)[C@H](Cc1c[nH]c2ccccc12)NC(=O)C(C)(C)C)S(=O)(=O)c1ccc(N)cc1` [Example 169, (2S,2′S) 2-N-(4-Aminobenzenesulfonyl)-2-N-isobutyl-6-N-(N′α-pivaloyl-S-tryptophanyl)-2,6-diaminohexanol]: the negative-log Ki (pKi) is 8.92. Same read-out and setting: to `CC(=O)N[C@@H](Cc1c[nH]c2ccccc12)C(=O)NCCCC[C@@H](CO)N(CC(C)C)S(=O)(=O)c1ccc(C)cc1` [Example 131, (2S,2′S) 2-N-Isobutyl-2-N-(4-methylbenzenesulfonyl)-6-N-(N′α-acetyl-S-tryptophanyl)-2,6-diaminohexanol] belongs 8.52.

Still in this assay, the particulars now being: Anti-protease activity of Ne-amino acid substituted L-lysine derivatives and analogs of formula I; read-out: Ki.
For the molecule `Cc1ccc(S(=O)(=O)N(CC(C)C)[C@@H](CCCCNC(=O)[C@H](Cc2ccccc2)NS(=O)(=O)c2cccs2)C(=O)NN)cc1` [Example 64, Nα-Isobutyl-Nα-(4-methylbenzenesulfonyl)-Nε-[N′α-(2-thiophenesulfonyl)-L-phenylalanyl]-L-lysine Hydrazide], the pKi was < 6.52.

The same assay, now with this note: Table 1, compounds of formula I; read-out: Ki (anti-protease activity).
As for `Cc1ccc(S(=O)(=O)N(CC(C)C)[C@H](CO)CCCCNC(=O)[C@H](Cc2ccc(CNC(=O)OCC3c4ccccc4-c4ccccc43)cc2)NC(=O)OC(C)(C)C)cc1` [Example 144, (2S,2′S) 2-N-Isobutyl-2-N-(4-methylbenzenesulfonyl)-6-N-[N′α-tert-butoxycarbonyl-S-4-(9-fluorenemethoxycarbonylaminomethyl)phenylalanyl]-2,6-diaminohexanol], the pKi is < 6.52. The same measure, in the same setting: to `CC(C)CN(CC(=O)NCCCC[C@@H](CO)N(CC(C)C)S(=O)(=O)c1ccc(N)cc1)c1ccccc1` [Example 181, (2S) 2-N-(4-Aminobenzenesulfonyl)-2-N-isobutyl-6-N-(N′α-isobutyl-N′α-phenylglycyl)-2,6-diaminohexanol] belongs 7.80. In the case of “Nα-Isobutyl-Nα-(4-methylbenzenesulfonyl)-Nε-(N′α-benzylglycyl)-L-lysine [Example 109]”, the pKi is < 6.52.

With `Cc1ccc(S(=O)(=O)N(CC(C)C)[C@H](CO)CCCCNC(=O)[C@H](Cc2ccccc2)NS(=O)(=O)c2cccs2)cc1` [Example 122, (2S,2′S) 2-N-Isobutyl-2-N-(4-methylbenzenesulfonyl)-6-N-[N′α-(2-thiophenesulfonyl)-S-phenylalanyl]-2,6-diaminohexanol], the negative-log Ki (pKi) was 8.09. `COc1ccc(S(=O)(=O)N(CC2CCCC2)[C@H](CO)CCCCNC(=O)[C@@H](N)Cc2c[nH]c3ccccc23)cc1` [Example 152, (2S,2′S) 2-N-Cyclopentylmethyl-2-N-(4-methoxybenzenesulfonyl)-6-N-(S-tryptophanyl)-2,6-diaminohexanol Trifluoroacetic Acid Salt]: the pKi is 7.92.
